The results in this text go back to patent publication US6313177A, “D-mannitol derivatives as HIV aspartyl protease inhibitors” (Pharmacor Inc., priority 1999, dated 2001).

This test concerns the target T1, recombinant HIV-1 protease (Human immunodeficiency virus type 1 group M subtype B, UniProt P04585).
T1 construct: recombinant HIV-1 protease; purchased Bachem Bioscience
Description: Fluorometric (FRET) enzymatic assay for the inhibition constant (Ki) against the HIV protease. The test is classed as biochemical. The text has this: Enzymatic Assay for Determining the Inhibition Constant (Ki) of Synthetic Compounds Prepared Against the HIV Protease
This is a fluorometric assay based on the cleavage by protease of a substrate carrying a donor group (EDANS, excitation at 340 nm and emission at 490 nm) and an acceptor group (DABCYL) on each side of the cleavage site, interacting together through fluorescence resonance energy transfer (FRET). Cleavage of the substrate by protease stops energy exchange between the two groups, resulting in a time-dependent increase in fluorescence intensity that is linearly related to the extent of substrate hydrolysis.
The enzymatic assay is done at 30° C. in a spectrophotometer microcuvet, in a total volume of 400 μL. The apparatus used for readings is a UV-visible Cary 1 spectrophotometer made by Varian. The reaction is run first in the absence of protease inhibitors for 2 min, using 355 μL of buffer at pH 4.7 (sodium acetate 100 mM, NaCl 1 M, EDTA 1 mM, DTT 1 mM, dimethylsulfoxide 10%, and BSA 1 mg/mL), 40 μL of substrate H-2930 from Molecular Probes (final concentration 10 μM) and 5 μL of recombinant HIV-1 protease (final concentration 18.3 nM) purchased from Bachem Bioscience. Fluorescence readings at […] are taken continuously during the reaction, allowing determination of the enzyme's initial velocity (v0). At the end of the 2 min incubation, the potential inhibitor at a defined concentration in a volume of 2 μL is added to the reaction, and fluorescence readings are taken for another 2 min, allowing determination of enzyme velocity (vi) in the presence of the inhibitory compound. Several concentrations of the putative inhibitors are tested in the assay. After calculation of vo and vi, the inhibition constant (Ki) of the compound is determined using the equation of Henderson: [formula]
and [I]=inhibitor concentration, [S ]=substrate concentration, Km=Michaelis-Menten constant, Kiapp =apparent Ki
Note that the Michaelis-Menten constant of HIV protease is determined by running the assay without inhibitors, using several concentrations of substrate, and plotting the results as a Cornish-Bowden graph with the ratio substrate concentration/velocity as the ordinate and substrate concentration as the abscissa.

Setting [1] is: Table 1, benzylated D-mannitol derivatives, pH 4.7, 30° C., substrate 10 μM, protease 18.3 nM.
The mark [2] stands for this setting: Table 2, tetra-substituted D-mannitol derivatives, pH 4.7, 30° C., substrate 10 μM, protease 18.3 nM.
Where [3] appears, read: Table 3, di- and tri-substituted D-mannitol derivatives, pH 4.7, 30° C., substrate 10 μM, protease 18.3 nM.

Structures are written as SMILES. Read-outs that look alike come from different tables or passages of the source.

In the case of `O[C@@H]([C@H](O)[C@@H](COCc1ccccc1)OCc1ccc(Cl)cc1)[C@@H](COCc1ccccc1)OCc1ccc(Cl)cc1` [Compound 17, 1,6-di-O-benzyl-2,5-di-O-(4-chlorobenzyl)-D-mannitol], the Ki under setting [1] was found to be 2 µM. `O[C@@H]([C@H](O)[C@@H](COCC1CC1)OCC1CC1)[C@@H](COCC1CC1)OCC1CC1` [Compound 79, 1,2,5,6-tetra-O-cyclopropylmethyl-D-mannitol]: the Ki under setting [2] stood at 21 µM. The same measure, in the same setting: to `O[C@@H]([C@H](O)[C@@H](COCc1cccs1)OCc1ccc(F)cc1)[C@@H](COCc1cccs1)OCc1ccc(F)cc1` [Compound 93, 1,6-di-O-(2-thienylmethyl)-2,5-di-O-(4-fluorophenylmethyl)-D-mannitol] belongs 0.4 µM. Regarding `COC(=O)c1ccc(CO[C@H](COCc2ccccc2)[C@@H](O)[C@H](O)[C@@H](COCc2ccccc2)OCc2ccc(C(=O)OC)cc2)cc1` [Compound 19, 1,6-di-O-benzyl-2,5-di-O-(4-carbomethoxybenzyl)-D-mannitol], the Ki under setting [1] was 8.4 µM. Still for that read-out and setting: the value for `N#Cc1ccc(CO[C@H](COCc2ccccc2)[C@@H](O)[C@H](O)[C@@H](COCc2ccccc2)OCc2ccc(C(N)=O)cc2)cc1` [Compound 60, 1,6-di-O-benzyl-2-O-(4-cyanobenzyl)-5-O-(4-carboxamidobenzyl)-D-mannitol] was 13 µM; that for `O[C@@H]([C@H](O)[C@@H](COCc1c(F)cccc1F)OCc1ccccc1)[C@@H](COCc1c(F)cccc1F)OCc1ccccc1` [Compound 35, 1,6-di-O-(2,6-difluorobenzyl)-2,5-di-O-benzyl-D-mannitol] was 0.33 ± 0.05 µM. As to `O=C(O)c1ccc(COC[C@@H](OCc2ccccc2)[C@@H](O)[C@H](O)[C@@H](COCc2ccc(C(=O)O)cc2)OCc2ccccc2)cc1` [Compound 51, 1,6-di-O-(4-carboxybenzyl)-2,5-di-O-benzyl-D-mannitol], the Ki under setting [1] is 5 µM. For `O[C@@H]([C@H](O)[C@@H](COCc1ccc(F)cc1)OCc1ccc(F)cc1)[C@@H](COCc1ccc(F)cc1)OCc1ccc(F)cc1` [Compound 52, 1,2,5,6-tetra-O-(4-fluorobenzyl)-D-mannitol], the Ki turned out to be 1.6 µM. Still for that read-out and setting: the value for `O[C@@H]([C@H](O)[C@@H](COCc1c(F)cccc1F)OCc1ccc(F)cc1)[C@@H](COCc1c(F)cccc1F)OCc1ccc(F)cc1` [Compound 39, 1,6-di-O-(2,6-difluorobenzyl)-2,5-di-O-(4-fluorobenzyl)-D-mannitol] was 0.33 µM. Take `Cc1ccc(CO[C@H](COCc2ccccc2F)[C@@H](O)[C@H](O)[C@@H](COCc2ccccc2F)OCc2ccc(C)cc2)cc1` [Compound 56, 1,6-di-O-(2-fluorobenzyl)-2,5-di-O-(4-methylbenzyl)-D-mannitol]: the Ki under setting [1] came to 3.5 µM. On to `O[C@H]([C@@H](O)[C@H](COCc1cccs1)OCc1ccccc1)[C@H](COCc1cccs1)OCc1ccccc1` (stereo in doubt) [Compound 92, 1,6-di-O-(2-thienylmethyl)-2,5-di-O-benzyl-L-mannitol], for which the Ki under setting [2] stood at 0.8 µM. As to `O[C@@H]([C@H](O)[C@@H](COCc1ccc(Cl)cc1)OCc1ccccc1)[C@@H](COCc1ccc(Cl)cc1)OCc1ccccc1` [Compound 55, 1,6-di-O-(4-chlorobenzyl)-2,5-di-O-benzyl-D-mannitol], the inhibition constant (Ki) was 5.2 µM. Take `O[C@@H]([C@H](O)[C@@H](COCc1ccccc1)OCc1ccncc1)[C@@H](COCc1ccccc1)OCc1ccncc1` [Compound 86, 1,6-di-O-benzyl-2,5-di-O-(4-pyridylmethyl)-D-mannitol]: the inhibition constant Ki under setting [2] is greater than 50 µM. As for `O=Cc1ccc(CO[C@H](COCc2ccccc2)[C@@H](O)[C@H](O)[C@@H](COCc2ccccc2)OCc2ccc(C=O)cc2)cc1` [Compound 49, 1,6-di-O-benzyl-2,5-di-O-(4-formylbenzyl)-D-mannitol], the Ki under setting [1] worked out at 28 µM. Consider `O[C@@H]([C@H](O)[C@@H](COCc1ccccc1)OCc1ccccc1)[C@H](O)COCc1ccccc1` [Compound 98, 1,2,6-tri-O-benzyl-D-mannitol], for which the Ki under setting [3] turned out to be 33 µM. As to `O[C@@H]([C@H](O)[C@@H](COCC=Cc1ccccc1)OCc1ccccc1)[C@@H](COCC=Cc1ccccc1)OCc1ccccc1` [Compound 94, 1,6-di-O-cinnamyl-2,5-di-O-benzyl-D-mannitol], the Ki under setting [2] is greater than 1 µM. In the case of `O[C@@H]([C@H](O)[C@@H](COCc1ccccc1F)OCc1cccs1)[C@@H](COCc1ccccc1F)OCc1ccc(F)cc1` [Compound 97, 1,6-di-O-(2-fluorobenzyl)-2-O-(4-fluorobenzyl)-5-O-(2-thienylmethyl)-D-mannitol], the Ki under setting [2] came to 0.23 µM. Turning to `O[C@@H]([C@H](O)[C@@H](COCc1ccc(F)cc1F)OCc1ccccc1)[C@@H](COCc1ccc(F)cc1F)OCc1ccccc1` [Compound 33, 1,6-di-O-(2,4-fluorobenzyl)-2,5-di-O-benzyl-D-mannitol], the Ki under setting [1] was found to be 4.2 ± 0.5 µM. In the case of `O[C@@H]([C@H](O)[C@@H](COCc1ccccc1)OCc1c(F)cccc1F)[C@@H](COCc1ccccc1)OCc1c(F)cccc1F` [Compound 25, 1,6-di-O-benzyl-2,5-di-O-(2,6-difluorobenzyl)-D-mannitol], under setting [1], the Ki is 6.4 µM.

For `N#Cc1ccc(CO[C@H](COCc2ccccc2)[C@@H](O)[C@H](O)[C@@H](COCc2ccccc2)OCc2ccc(C#N)cc2)cc1` [Compound 14, 1,6-di-O-benzyl-2,5-di-O-(4-cyanobenzyl)-D-mannitol], the Ki under setting [1] stood at 5.4 µM. Same read-out and setting: the value for `O[C@@H]([C@H](O)[C@@H](COCc1ccc(Br)cc1)OCc1ccccc1)[C@@H](COCc1ccc(Br)cc1)OCc1ccccc1` [Compound 54, 1,6-di-O-(4-bromobenzyl)-2,5-di-O-benzyl-D-mannitol] was greater than 3 µM; that for `O=[N+]([O-])c1ccc(CO[C@H](COCc2ccccc2)[C@@H](O)[C@H](O)[C@@H](COCc2ccccc2)OCc2ccccc2)cc1` [Compound 61] was 23 µM. Same read-out and setting: to `O[C@@H]([C@H](O)[C@@H](COCc1ccccc1)OCc1ccc(OCc2ccccc2)cc1)[C@@H](COCc1ccccc1)OCc1ccc(OCc2ccccc2)cc1` [Compound 6, 1,6-di-O-benzyl-2,5-di-O-(4-benzyloxybenzyl)-D-mannitol] belongs less than 1 µM.

Take `O=C(O[C@H](COCc1ccccc1)[C@@H](O)[C@H](O)[C@@H](COCc1ccccc1)OC(=O)c1ccccc1)c1ccccc1` [Compound 109, 1,6-di-O-benzyl-2,5-di-O-benzoyl-D-mannitol]: the Ki under setting [3] is 10 µM. Turning to `O[C@@H]([C@H](O)[C@@H](COCc1ccccc1)OCc1ccc(C(F)(F)F)cc1)[C@@H](COCc1ccccc1)OCc1ccc(C(F)(F)F)cc1` [Compound 22, 1,6-di-O-benzyl-2,5-di-O-(4-trifluoromethylbenzyl)-D-mannitol], under setting [1], the Ki came to 10 µM. Take `O[C@@H]([C@H](O)[C@@H](COCC1CC1)OCc1ccccc1)[C@@H](COCC1CC1)OCc1ccccc1` [Compound 89, 1,6-di-O-cyclopropylmethyl-2,5-di-O-dibenzyl-D-mannitol]: under setting [2], the Ki is 16 µM. On to `Nc1ccc(CO[C@H](COCc2ccccc2)[C@@H](O)[C@H](O)[C@@H](COCc2ccccc2)OCc2ccccc2)cc1` [Compound 9, 1,2,6-tri-O-benzyl-5-O-(4-aminobenzyl)-D-mannitol], for which, under setting [1], the Ki turned out to be 3.3 µM. Same read-out and setting: the value for `Cc1ccccc1CO[C@H](COCc1ccccc1F)[C@@H](O)[C@H](O)[C@@H](COCc1ccccc1F)OCc1ccccc1C` [Compound 38, 1,6-di-O-(2-fluorobenzyl)-2,5-di-O-(2-methylbenzyl)-D-mannitol] was 0.8 µM; that for `O[C@@H]([C@H](O)[C@@H](COCc1ccccc1F)OCc1ccccc1)[C@@H](COCc1ccccc1F)OCc1ccccc1` [Compound 32, 1,6-di-O-(2-fluorobenzyl)-2,5-di-O-benzyl-D-mannitol] was 0.6 µM; that for `O[C@@H]([C@H](O)[C@@H](COCc1ccccc1F)OCc1ccc(F)cc1)[C@@H](COCc1ccccc1F)OCc1ccccc1` [Compound 62, 1,6-di-O-(2-fluorobenzyl)-2-O-benzyl-5-O-(4-fluorobenzyl)-D-mannitol] was 0.22 µM. Consider `OCc1ccc(COC[C@@H](OCc2ccccc2)[C@@H](O)[C@H](O)[C@@H](COCc2ccc(CO)cc2)OCc2ccccc2)cc1` [Compound 48, 1,6-di-(4-hydroxymethylbenzyl)-2,5-dibenzyl-D-mannitol], for which the Ki under setting [1] turned out to be 1.2 µM. Regarding `O[C@@H]([C@H](O)[C@@H](COCc1ccccc1)OCC1CC1)[C@@H](COCc1ccccc1)OCC1CC1` [Compound 83, 1,6-di-O-benzyl-2,5-di-O-cyclopropylmethyl-D-mannitol], under setting [2], the Ki worked out at 9 µM.
